Assay results published in patent publication US20250000785A1, “COSMETIC COMPOSITION COMPRISING CRANBERRY EXTRACT AND CRANBERRY SEED OIL” (Givaudan SA, priority 2021, published 2025).

System: TNF-α release of Normal Human Epidermal Keratinocytes (NHEKs) stressed with PMA
Experiment: TNF-α release by NHEKs stressed with PMA (ELISA quantification, normalised with MTT)
Format: cell-based
Conditions: dexamethasone 1 μM, 24 h pre-incubation, then PMA 1 ng/ml 24 h; vs untreated PMA-stressed NHEKs; p<0.001
Procedure: The effect of a cranberry extract, a cranberry seed oil and combinations of a cranberry extract and a cranberry seed oil on the anti-inflammatory activity of keratinocytes stressed with PMA was evaluated by comparing the decrease of the cytokine TNF-α release of Normal Human Epidermal Keratinocytes (NHEKs) treated with the cranberry products and stressed with PMA (Phorbol 12-myristate 13-acetate) with the TNF-α release of untreated NHEKs stressed with PMA.
The cell culture was done on primary cells isolated from fresh biopsies. NHEKs were seeded in a type I collagen pre-coated 24 wells-plate at 30 000 cells per well in triplicate. […]
A MTT assay was performed to evaluate treatments toxicity and for the normalisation of TNF-α quantification.
MTT solution (Sigma) diluted at 1 mg/mL in basal medium was added to each well and incubated for 3 hours at 37° C., 5% CO2. […] The optical density was measured at a wavelength of 560 nm.
The TNF-α quantification was realized with the Human TNF-alpha Quantikine ELISA kit (DTA00D, R&D Systems).
The samples and the standard range were incubated for 2 hours in 96-wells plate pre-coated with a monoclonal antibody specific for human TNF-α in presence of the Assay Diluent RD1F. […] The optical density was measured at 450 nm and 540 nm with a microplate reader (TECAN SPARK® 10M). […]
The quantification was carried out in duplicate. […]

C[C@@H]1C[C@H]2[C@@H]3CCC4=CC(=O)C=C[C@]4(C)[C@@]3(F)[C@@H](O)C[C@]2(C)[C@@]1(O)C(=O)CO [dexamethasone, Dexamethasone]
reduction of the release of cytokine TNF-α: 46%
